{"source": "patent US5180665A", "about": "“Method for quantitatively assaying the presence of diarrhetic shellfish poisoning toxins in marine samples” (priority 1990, dated 1993)", "key": {"[1]": {"molecular_target": "T1, protein phosphatase-2A (PP2A) catalytic subunit (Oryctolagus cuniculus, UniProt P67777)", "T1 construct": "Homogeneous PP-1 and -2A catalytic subunits were purified from rabbit skeletal muscle; from tissue; host or cells: rabbit skeletal muscle", "T1 sequence (P67777 whole entry)": "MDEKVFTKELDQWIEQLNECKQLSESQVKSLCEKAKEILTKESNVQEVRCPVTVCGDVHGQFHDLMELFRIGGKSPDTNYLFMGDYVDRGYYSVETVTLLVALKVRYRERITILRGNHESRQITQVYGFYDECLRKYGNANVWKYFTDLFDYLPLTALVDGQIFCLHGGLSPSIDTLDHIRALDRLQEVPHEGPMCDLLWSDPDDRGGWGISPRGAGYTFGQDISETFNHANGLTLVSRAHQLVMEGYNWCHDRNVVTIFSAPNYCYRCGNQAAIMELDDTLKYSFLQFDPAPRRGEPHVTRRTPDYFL", "test": "Standard phosphorylase a phosphatase assay, inhibition of PP2A catalytic subunit", "assay_type": "biochemical, rabbit", "conditions": "for inhibition of PP2A: result in words"}, "[2]": {"system": "protein phosphatase-1 (PP1) catalytic subunit", "test": "Standard phosphorylase a phosphatase assay, inhibition of PP1 catalytic subunit", "assay_type": "biochemical, rabbit", "conditions": "for inhibition of PP1: result in words"}, "PP1/PP2A": {"system": "PP1/PP2A", "test": "LC-linked protein phosphatase bioassay, cross-reactivity", "assay_type": "biochemical, rabbit", "conditions": "result in words"}, "mouse skin": {"system": "mouse skin", "conditions": "cited from earlier work"}, "[3]": {"system": "protein phosphatase-1 (PP1)", "conditions": "literature, result in words; cited from earlier work"}, "[4]": {"system": "protein phosphatase-2A (PP2A)", "conditions": "literature, result in words; cited from earlier work"}}, "note": "Like-named read-outs stand apart in the source and are kept apart here. Numbered stars: 1 amine (or outer) side, 2 acyl side, 3 side chain; on linkers, the order of the positions; unused ones are H or OH. Bridge positions count the residues as written; N and C are the ends. Square brackets hold non-standard residues; d marks the D form. Peptide text beside a SMILES is read from it. Adda = CO[C@@H](Cc1ccccc1)[C@@H](C)/C=C(C)/C=C/[C@H](N[*:1])[C@H](C)C(=O)[*:2]; dAsp(3S-Me) = C[C@H](C(=O)[*:3])[C@@H](N[*:1])C(=O)[*:2]; d(γGlu) = O=C(O)[C@@H](CCC(=O)[*:2])N[*:1]; NMeDha = C=C(NC)C(=O)O", "data": [{"compound": "CO[C@@H]1[C@@H](OC)[C@H](C)[C@@](O)(CC(=O)O)O[C@H]1[C@H](C)[C@H]1O[C@@]2(CC[C@@](C)([C@H]3CC[C@@](C)([C@@H]4O[C@@H]([C@H]5O[C@](C)(O)[C@H](C)C[C@@H]5C)C[C@@H]4O[C@@H]4C[C@H](OC)[C@@H](OC)[C@H](C)O4)O3)O2)C[C@H](O)[C@H]1C", "note": "[maduramycin]", "values": [{"measurement": "inhibition of PP2A", "setting": "[1]", "result": "not inhibited"}, {"measurement": "inhibition of PP1", "setting": "[2]", "result": "not inhibited"}]}, {"compound": "C/C(=C/C=C/[C@@H](C)C(=O)O)[C@H]1CN[C@H](C(=O)O)[C@H]1CC(=O)O", "note": "[domoic acid]", "values": [{"measurement": "cross-reactivity in the LC-linked protein phosphatase bioassay", "setting": "PP1/PP2A", "result": "does not cross-react"}]}, {"compound": "CO[C@@H]1C[C@@H](C[C@H]2CC[C@H](C)[C@H]([C@@H](C)C(=O)O)O2)O[C@]2(O[C@](C)([C@H]3CC[C@@](C)([C@@H]4O[C@@H]([C@H]5O[C@@](O)(CO)[C@H](C)C[C@@H]5C)C[C@@H]4C)O3)C[C@H]2C)[C@@H]1C", "note": "[nigericin]", "values": [{"measurement": "inhibition of PP2A", "setting": "[1]", "result": "not inhibited"}, {"measurement": "inhibition of PP1", "setting": "[2]", "result": "not inhibited"}]}, {"compound": "dinophysistoxin-1", "values": [{"measurement": "fold stronger inhibition of PP2A than PP1", "setting": "[1]; rabbit", "result": "90(+10) fold"}, {"measurement": "tumour promoting potency compared with phorbol esters", "setting": "mouse skin; mouse, in vivo", "result": "comparable potency"}, {"measurement": "tumour promotion", "setting": "mouse skin; mouse, in vivo", "result": "powerful tumour promoters"}]}, {"compound": "C=C1C(=O)N[C@H](C)C(=O)N[C@@H](CC(C)C)C(=O)N[C@@H](C(=O)O)[C@H](C)C(=O)N[C@@H](CCCNC(=N)N)C(=O)N[C@@H](/C=C/C(C)=C/[C@H](C)[C@H](Cc2ccccc2)OC)[C@H](C)C(=O)N[C@@H](C(=O)O)CCC(=O)N1C", "note": "[Microcystin-LR] (R[Adda][d(γGlu)][NMeDha][dA]L[dAsp(3S-Me)]-OH; lactam N-7)", "values": [{"measurement": "IC50", "setting": "[1]; pH 7, read-out: IC50 for PP2A inhibition", "result": 0.1, "unit": "nM"}, {"measurement": "IC50", "setting": "[2]; pH 7", "result": 0.1, "unit": "nM"}]}, {"compound": "C=C1[C@@H](O)[C@@H]2O[C@]3(CC[C@H](/C=C/[C@@H](C)[C@@H]4CC(C)=C[C@@]5(O[C@H](C[C@@](C)(O)C(=O)O)CC[C@H]5O)O4)O3)CC[C@H]2O[C@@H]1[C@@H](O)C[C@H](C)[C@H]1O[C@@]2(CCCCO2)CC[C@H]1C", "note": "[okadaic acid]", "values": [{"measurement": "IC50", "setting": "[1]; PP2A diluted to 0.03 mU/ml in the standard assay, read-out: IC50 for okadaic acid with diluted PP2A", "result": 0.04, "unit": "nM"}, {"measurement": "fold stronger inhibition of PP2A than PP1", "setting": "[1]; PP2A relative to PP1, standard assay", "result": "90(+10) fold"}, {"measurement": "inhibitor of protein phosphatase-1", "setting": "[3]", "result": "potent and specific inhibitor"}, {"measurement": "tumour promotion", "setting": "mouse skin; result in words", "result": "powerful tumour promoters"}, {"measurement": "tumour promoting potency compared with phorbol esters", "setting": "mouse skin; two-stage carcinogenesis, mouse skin, versus phorbol esters", "result": "comparable potency"}, {"measurement": "inhibitor of protein phosphatase-2A", "setting": "[4]", "result": "potent and specific inhibitor"}, {"measurement": "IC50", "setting": "[2]; standard phosphorylase a phosphatase assay, 1 mU/ml PP1, pH 7.0, 30° C.", "result": 19, "unit": "nM"}]}, {"compound": "CC[C@@H](C(=O)[C@@H](C)[C@@H](O)[C@H](C)[C@@H]1O[C@@H]([C@@H](CC)C(=O)O)CC[C@@H]1C)[C@H]1O[C@]2(C=C[C@@H](O)[C@]3(CC[C@@](C)([C@H]4CC[C@](O)(CC)[C@H](C)O4)O3)O2)[C@H](C)C[C@@H]1C", "note": "[salinomycin]", "values": [{"measurement": "inhibition of PP2A", "setting": "[1]", "result": "not inhibited"}, {"measurement": "inhibition of PP1", "setting": "[2]", "result": "not inhibited"}]}, {"compound": "CC[C@@]1([C@@H]2O[C@@H]([C@H]3O[C@@](O)(CO)[C@H](C)C[C@@H]3C)C[C@@H]2C)CC[C@H]([C@]2(C)CC[C@]3(C[C@H](O)[C@@H](C)[C@@H]([C@@H](C)[C@@H](OC)[C@H](C)C(=O)O)O3)O2)O1", "note": "[monensin]", "values": [{"measurement": "inhibition of PP2A", "setting": "[1]", "result": "not inhibited"}, {"measurement": "inhibition of PP1", "setting": "[2]", "result": "not inhibited"}]}]}
